Laboratory results reported in paper PMC9609767, “Radiosynthesis and Preclinical Evaluation of an ^18F-Labeled Triazolopyridopyrazine-Based Inhibitor for Neuroimaging of the Phosphodiesterase 2A (PDE2A)” (Pharmaceuticals, 2022).

Tests used:
[1] = Dynamic PET/MR study in SPRD rat; assay type: in vivo
Experimental: (§1) For the time of the experiments, one female CD-1 mouse (10 weeks; 30.5 g) and one female SPRD rat (9 weeks; 256 g) were kept in a dedicated climatic chamber with free access to water and food under a 12:12 h dark:light cycle at a constant temperature (24 °C). The animals were anesthetized (Anaesthesia Unit U-410, agntho’s, Lidingö, Sweden) with isoflurane (2.0%, 300 mL/min) delivered in a 60% oxygen/40% air mixture (Gas Blender 100 Series, MCQ instruments, Rome, Italy) and their body temperature maintained at 37 °C with a thermal bed system for the duration of the PET studies. A dynamic PET scan (PET/MR 1T, Mediso nanoScan®, Hungary) started 20 s before intravenous injection into the tail vein of [^18F]11 and was performed in mouse for 60 min (4.9 MBq in 150 μL isotonic saline; 20.5 nmol/kg; Am: 8.9 GBq/μmol, EOS) in rat for 30 min (29.7 MBq in 400 μL isotonic saline; 12 nmol/kg; Am: 11 GBq/μmol, EOS). Each PET image was corrected for random coincidences, dead time, scatter and attenuation (AC), based on a whole body (WB) MR scan. The reconstruction parameters for the list mode data were 3D-ordered subset expectation maximization (OSEM), 4 iterations, 6 subsets, energy window: 400–600 keV, coincidence mode: 1–5, ring difference: 81. Preceding the PET scan a T1 weighted WB gradient echo sequence (TR/TE: 20/6.4 ms, NEX: 1, FA: 25, FOV: 64 × 64 mm, Matrix: 128 × 128, STh: 0.5 mm) was performed for AC and anatomical orientation. PET Images were analyzed with PMOD (PMOD Technologies LLC, v. 4.1, Zurich, Switzerland). The respective brain regions were identified using the mouse brain atlas template Ma-Benveniste-Mirrione-T2 or the rat brain atlas template Schwarz-T2. The regional activity data (radioactivity concentration, kBq/mL) were normalized to the injected dose (MBq) and corrected for the animal weight (g) to provide standardized uptake values (SUV, g/mL). Finally, the results of the PETscans are expressed as mean SUV of the respective region of interest ROI.

[2] = logD by shake flask method (n-octanol/PBS); assay type: physicochemical; settings: n-octanol/phosphate-buffered saline, n = 4
Experimental: (§2) In order to estimate the lipophilicity of [^18F]11, the partition coefficient was determined by the shake flask method using n-octanol and phosphate-buffered saline as partition system. […] The chemical stability of the radiotracer was investigated by incubation in phosphate-buffered saline (PBS) and n-octanol at 30 °C.
(§3) The determination of stability and logD value has been performed according to the procedures described by Sadeghzadeh and Wenzel et al..

[3] = Dynamic PET/MR study in CD-1 mouse; assay type: in vivo; settings: for Uptake (SUVmean): uncorrected for metabolites
Experimental: as §1

[4] = Chemical stability of the radiotracer in PBS and n-octanol; assay type: physicochemical; settings: 30 °C, 60 min, radio-HPLC
Experimental: as §2, §3

CCCC(O)c1ccc([18F])c(-c2nnc3c(C)nc4ccc(C5CC5)nc4n23)c1 (centres unmarked) [[^18F]11]
SUV caudate putamen ([1]; 15 min p.i.): 0.51 SUV
SUV cerebellum ([1]; 15 min p.i.): 0.40 SUV
peak value of brain uptake (SUV) ([1]; whole brain, at 0.6 min): 0.97 SUV
logD [2]: 1.79 ± 0.66
maximum SUV in small intestine ([3]; 60 min p.i.): ~ 35 SUV
SUV in bladder, spleen, muscle, gallbladder, kidney, and liver ([3]; all time points investigated): < 5 SUV
Uptake (SUVmean) ([3]; bladder, 5 min): 0.10 SUV
Uptake (SUVmean) ([3]; bladder, 15 min): 0.08 SUV
Uptake (SUVmean) ([3]; bladder, 30 min): 0.10 SUV
Uptake (SUVmean) ([3]; bladder, 45 min): 0.07 SUV
Uptake (SUVmean) ([3]; bladder, 60 min): 0.06 SUV
Uptake (SUVmean) ([3]; blood, 5 min): 0.93 SUV
Uptake (SUVmean) ([3]; blood, 15 min): 0.56 SUV
Uptake (SUVmean) ([3]; blood, 30 min): 0.46 SUV
Uptake (SUVmean) ([3]; blood, 45 min): 0.34 SUV
Uptake (SUVmean) ([3]; blood, 60 min): 0.32 SUV
Uptake (SUVmean) ([3]; bones, 5 min): 0.71 SUV
Uptake (SUVmean) ([3]; bones, 15 min): 0.47 SUV
Uptake (SUVmean) ([3]; bones, 30 min): 0.31 SUV
Uptake (SUVmean) ([3]; bones, 45 min): 0.23 SUV
Uptake (SUVmean) ([3]; bones, 60 min): 0.20 SUV
Uptake (SUVmean) ([3]; caecum, 5 min): 0.10 SUV
Uptake (SUVmean) ([3]; caecum, 15 min): 0.12 SUV
Uptake (SUVmean) ([3]; caecum, 30 min): 0.11 SUV
Uptake (SUVmean) ([3]; caecum, 45 min): 0.11 SUV
Uptake (SUVmean) ([3]; caecum, 60 min): 0.16 SUV
TAC peak value (SUV) ([3]; cerebellum, at 0.8 min): 0.61 SUV
TAC peak value (SUV) ([3]; cortex, at 2.8 min): 0.47 SUV
Uptake (SUVmean) ([3]; gallbladder, 5 min): 1.41 SUV
Uptake (SUVmean) ([3]; gallbladder, 15 min): 1.78 SUV
Uptake (SUVmean) ([3]; gallbladder, 30 min): 1.46 SUV
Uptake (SUVmean) ([3]; gallbladder, 45 min): 1.32 SUV
Uptake (SUVmean) ([3]; gallbladder, 60 min): 1.34 SUV
Uptake (SUVmean) ([3]; heart, 5 min): 1.11 SUV
Uptake (SUVmean) ([3]; heart, 15 min): 0.65 SUV
Uptake (SUVmean) ([3]; heart, 30 min): 0.52 SUV
Uptake (SUVmean) ([3]; heart, 45 min): 0.37 SUV
Uptake (SUVmean) ([3]; heart, 60 min): 0.35 SUV
TAC peak value (SUV) ([3]; hippocampus, at 2.8 min): 0.70 SUV
Uptake (SUVmean) ([3]; kidney left, 5 min): 2.79 SUV
Uptake (SUVmean) ([3]; kidney left, 15 min): 2.37 SUV
Uptake (SUVmean) ([3]; kidney left, 30 min): 1.61 SUV
Uptake (SUVmean) ([3]; kidney left, 45 min): 1.18 SUV
Uptake (SUVmean) ([3]; kidney left, 60 min): 1.17 SUV
Uptake (SUVmean) ([3]; liver, 5 min): 3.40 SUV
Uptake (SUVmean) ([3]; liver, 15 min): 4.16 SUV
Uptake (SUVmean) ([3]; liver, 30 min): 3.62 SUV
Uptake (SUVmean) ([3]; liver, 45 min): 3.17 SUV
Uptake (SUVmean) ([3]; liver, 60 min): 3.00 SUV
Uptake (SUVmean) ([3]; lung, 5 min): 0.65 SUV
Uptake (SUVmean) ([3]; lung, 15 min): 0.43 SUV
Uptake (SUVmean) ([3]; lung, 30 min): 0.33 SUV
Uptake (SUVmean) ([3]; lung, 45 min): 0.25 SUV
Uptake (SUVmean) ([3]; lung, 60 min): 0.25 SUV
Uptake (SUVmean) ([3]; muscle, 5 min): 0.63 SUV
Uptake (SUVmean) ([3]; muscle, 15 min): 0.49 SUV
Uptake (SUVmean) ([3]; muscle, 30 min): 0.35 SUV
Uptake (SUVmean) ([3]; muscle, 45 min): 0.26 SUV
Uptake (SUVmean) ([3]; muscle, 60 min): 0.21 SUV
Uptake (SUVmean) ([3]; small intestine, 5 min): 2.10 SUV
Uptake (SUVmean) ([3]; small intestine, 15 min): 9.48 SUV
Uptake (SUVmean) ([3]; small intestine, 30 min): 20.64 SUV
Uptake (SUVmean) ([3]; small intestine, 45 min): 29.65 SUV
Uptake (SUVmean) ([3]; small intestine, 60 min): 35.11 SUV
Uptake (SUVmean) ([3]; spleen, 5 min): 0.48 SUV
Uptake (SUVmean) ([3]; spleen, 15 min): 0.59 SUV
Uptake (SUVmean) ([3]; spleen, 30 min): 0.45 SUV
Uptake (SUVmean) ([3]; spleen, 45 min): 0.30 SUV
Uptake (SUVmean) ([3]; spleen, 60 min): 0.24 SUV
Uptake (SUVmean) ([3]; stomach, 5 min): 0.15 SUV
Uptake (SUVmean) ([3]; stomach, 15 min): 0.18 SUV
Uptake (SUVmean) ([3]; stomach, 30 min): 0.19 SUV
Uptake (SUVmean) ([3]; stomach, 45 min): 0.17 SUV
Uptake (SUVmean) ([3]; stomach, 60 min): 0.13 SUV
TAC peak value (SUV) ([3]; striatum, at 2.8 min): 0.71 SUV
peak value of brain time-activity curve (SUV) ([3]; whole brain, at 2.8 min p.i.): 0.55 SUV
chemical stability [4]: stable
